# In patent publication US11541028B2, “Peptide pharmaceuticals for treatment of NASH and other disorders” (Mederis Diabetes LLC, priority 2018, dated 2023):
# Like-named read-outs stand apart in the source and are kept apart here. Bridge positions count the residues as written; N and C are the ends. Square brackets hold non-standard residues; d marks the D form. Peptide text beside a SMILES is read from it. * marks the point of attachment. Melibiouronoyl(1β-O-dodecyl) = CCCCCCCCCCCCO[C@@H]1O[C@H](CO[C@H]2O[C@H](C(=O)*)[C@H](O)[C@H](O)[C@H]2O)[C@@H](O)[C@H](O)[C@H]1O; βDGlcA(1-OC18H37) = CCCCCCCCCCCCCCCCCCO[C@@H]1O[C@H](C(=O)*)[C@@H](O)[C@H](O)[C@H]1O; Bip = N[C@@H](Cc1ccc(-c2ccccc2)cc1)C(=O)O; αMeF = C[C@](N)(Cc1ccccc1)C(=O)O; Aib = CC(C)(N)C(=O)O
# Tests used:
# human glucagon receptor = molecular target: T1, human glucagon receptor (Homo sapiens, UniProt P47871); assay: DiscoveRx LeadHunter cellular assay, cAMP stimulation, glucagon receptor in CHO cells; format: cell-based
# T1 construct: host or cells: CHO cells
# T1 sequence (P47871 26-477): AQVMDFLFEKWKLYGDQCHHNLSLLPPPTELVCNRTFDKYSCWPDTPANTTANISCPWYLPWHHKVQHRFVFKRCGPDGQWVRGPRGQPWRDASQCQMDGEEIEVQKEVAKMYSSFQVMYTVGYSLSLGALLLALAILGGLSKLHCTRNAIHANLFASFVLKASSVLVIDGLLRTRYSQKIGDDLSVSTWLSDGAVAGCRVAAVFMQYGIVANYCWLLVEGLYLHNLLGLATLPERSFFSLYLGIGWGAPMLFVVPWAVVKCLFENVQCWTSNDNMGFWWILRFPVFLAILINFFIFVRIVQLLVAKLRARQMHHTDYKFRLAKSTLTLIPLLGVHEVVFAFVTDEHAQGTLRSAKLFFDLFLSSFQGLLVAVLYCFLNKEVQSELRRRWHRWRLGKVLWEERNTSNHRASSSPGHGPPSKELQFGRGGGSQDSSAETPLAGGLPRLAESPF
# human GLP-1 receptor = molecular target: T2, human GLP-1 receptor (Homo sapiens, UniProt P43220); assay: DiscoveRx LeadHunter cellular assay, cAMP stimulation, GLP-1 receptor in CHO cells; format: cell-based; conditions: human GLP-1 receptor in CHO cells (DiscoveRx); read-out: EC50 cAMP GLP-1 R
# T2 construct: host or cells: CHO cells
# T2 sequence (P43220 24-463): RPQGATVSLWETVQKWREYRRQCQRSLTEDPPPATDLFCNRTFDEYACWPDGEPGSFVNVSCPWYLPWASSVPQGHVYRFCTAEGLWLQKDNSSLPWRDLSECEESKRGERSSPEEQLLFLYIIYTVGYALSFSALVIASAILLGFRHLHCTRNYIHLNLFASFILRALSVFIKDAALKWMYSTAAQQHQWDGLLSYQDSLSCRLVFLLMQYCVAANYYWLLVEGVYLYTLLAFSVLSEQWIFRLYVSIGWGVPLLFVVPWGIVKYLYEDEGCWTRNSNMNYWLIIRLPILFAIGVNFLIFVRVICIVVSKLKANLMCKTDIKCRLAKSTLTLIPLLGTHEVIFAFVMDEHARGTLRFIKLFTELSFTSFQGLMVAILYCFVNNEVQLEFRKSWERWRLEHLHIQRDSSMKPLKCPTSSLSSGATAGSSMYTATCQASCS
SMILES,"EC50 (human glucagon receptor; read-out: EC50 cAMP Glucagon R, human glucagon receptor in CHO cells (DiscoveRx))",EC50 (human GLP-1 receptor),EC50 (human glucagon receptor)
CCCCCCCCCCCCCCCCCCO[C@@H]1O[C@H](C(=O)NCCCC[C@H](NC(=O)[C@@H](NC(=O)[C@H](Cc2ccccc2)NC(=O)[C@H](CCC(=O)O)NC(=O)[C@@H]2CCCCNC(=O)CC[C@H](NC(=O)[C@H](CC(=O)O)NC(=O)[C@H](CC(C)C)NC(=O)[C@H](Cc3ccc(O)cc3)NC(=O)[C@H](CCCCN)NC(=O)[C@H](CO)NC(=O)[C@H](Cc3ccc(O)cc3)NC(=O)[C@H](CC(=O)O)NC(=O)[C@H](CO)NC(=O)[C@@H](NC(=O)[C@H](Cc3ccccc3)NC(=O)[C@@H](NC(=O)CNC(=O)[C@H](CCC(N)=O)NC(=O)C(C)(C)NC(=O)[C@@H](N)Cc3c[nH]cn3)[C@@H](C)O)[C@@H](C)O)C(=O)N[C@@H](CCC(N)=O)C(=O)N[C@@H](C)C(=O)N[C@@H](C)C(=O)N2)[C@@H](C)CC)C(=O)N[C@@H](Cc2c[nH]c3ccccc23)C(=O)N[C@@H](CC(C)C)C(=O)N[C@@H](CC(C)C)C(=O)N[C@@H](CCC(N)=O)C(=O)N[C@H](C(N)=O)[C@@H](C)O)[C@@H](O)[C@H](O)[C@H]1O [EU-A996],,0.05 nM,
CCCCCCCCCCCCO[C@@H]1O[C@H](C(=O)O)[C@@H](O[C@H]2O[C@H](C(=O)NCCCC[C@H](NC(=O)[C@@H](NC(=O)[C@H](Cc3ccccc3)NC(=O)[C@H](CCC(=O)O)NC(=O)[C@@H]3CCCCNC(=O)CC[C@H](NC(=O)[C@H](CC(=O)O)NC(=O)[C@H](CC(C)C)NC(=O)[C@H](Cc4ccc(O)cc4)NC(=O)[C@H](CCCCN)NC(=O)[C@H](CO)NC(=O)[C@H](Cc4ccc(O)cc4)NC(=O)[C@H](CC(=O)O)NC(=O)[C@H](CO)NC(=O)[C@@H](NC(=O)[C@H](Cc4ccccc4)NC(=O)[C@@H](NC(=O)CNC(=O)[C@H](CCC(N)=O)NC(=O)C(C)(C)NC(=O)[C@@H](N)Cc4c[nH]cn4)[C@@H](C)O)[C@@H](C)O)C(=O)N[C@@H](CCC(N)=O)C(=O)N[C@@H](C)C(=O)N[C@@H](C)C(=O)N3)[C@@H](C)CC)C(=O)N[C@@H](Cc3c[nH]c4ccccc34)C(=O)N[C@@H](CC(C)C)C(=O)N[C@@H](CC(C)C)C(=O)N[C@@H](CCC(N)=O)C(=O)N[C@H](C(N)=O)[C@@H](C)O)[C@@H](O)[C@H](O)[C@H]2O)[C@H](O)[C@H]1O [EU-A999],,0.05 nM,
CCCCCCCCCCCCO[C@@H]1O[C@H](CO[C@H]2O[C@H](C(=O)NCCCC[C@H](NC(=O)[C@@H](NC(=O)[C@H](Cc3ccccc3)NC(=O)[C@H](CCC(=O)O)NC(=O)[C@@H]3CCCCNC(=O)CC[C@H](NC(=O)[C@H](CC(=O)O)NC(=O)[C@H](CC(C)C)NC(=O)[C@H](Cc4ccc(O)cc4)NC(=O)[C@H](CCCCN)NC(=O)[C@H](CO)NC(=O)[C@H](Cc4ccc(O)cc4)NC(=O)[C@H](CC(=O)O)NC(=O)[C@H](CO)NC(=O)[C@@H](NC(=O)[C@H](Cc4ccccc4)NC(=O)[C@@H](NC(=O)CNC(=O)[C@H](CCC(N)=O)NC(=O)C(C)(C)NC(=O)[C@@H](N)Cc4c[nH]cn4)[C@@H](C)O)[C@@H](C)O)C(=O)N[C@@H](CCC(N)=O)C(=O)N[C@@H](C)C(=O)N[C@@H](C)C(=O)N3)[C@@H](C)CC)C(=O)N[C@@H](Cc3c[nH]c4ccccc34)C(=O)N[C@@H](CC(C)C)C(=O)N[C@@H](CC(C)C)C(=O)N[C@@H](CCC(N)=O)C(=O)N[C@H](C(=O)O)[C@@H](C)O)[C@H](O)[C@H](O)[C@H]2O)[C@@H](O)[C@H](O)[C@H]1O [EU-A1576],,0.032 nM,0.07 nM
CCCCCCCCCCCCCCO[C@@H]1O[C@H](CO[C@H]2O[C@H](C(=O)NCCCC[C@H](NC(=O)[C@@H](NC(=O)[C@H](Cc3ccccc3)NC(=O)[C@H](CCC(=O)O)NC(=O)[C@@H]3CCCCNC(=O)CC[C@H](NC(=O)[C@H](CC(=O)O)NC(=O)[C@H](CC(C)C)NC(=O)[C@H](Cc4ccc(O)cc4)NC(=O)[C@H](CCCCN)NC(=O)[C@H](CO)NC(=O)[C@H](Cc4ccc(O)cc4)NC(=O)[C@H](CC(=O)O)NC(=O)[C@H](CO)NC(=O)[C@@H](NC(=O)[C@H](Cc4ccccc4)NC(=O)[C@@H](NC(=O)CNC(=O)[C@H](CCC(N)=O)NC(=O)C(C)(C)NC(=O)[C@@H](N)Cc4c[nH]cn4)[C@@H](C)O)[C@@H](C)O)C(=O)N[C@@H](CCC(N)=O)C(=O)N[C@@H](C)C(=O)N[C@@H](C)C(=O)N3)[C@@H](C)CC)C(=O)N[C@@H](Cc3c[nH]c4ccccc34)C(=O)N[C@@H](CC(C)C)C(=O)N[C@@H](CC(C)C)C(=O)N[C@@H](CCC(N)=O)C(=O)N[C@H](C(=O)O)[C@@H](C)O)[C@H](O)[C@H](O)[C@H]2O)[C@@H](O)[C@H](O)[C@H]1O [EU-A1577],,0.007 nM,0.069 nM
CCCCCCCCCCCCCCCCO[C@@H]1O[C@H](CO[C@H]2O[C@H](C(=O)NCCCC[C@H](NC(=O)[C@@H](NC(=O)[C@H](Cc3ccccc3)NC(=O)[C@H](CCC(=O)O)NC(=O)[C@@H]3CCCCNC(=O)CC[C@H](NC(=O)[C@H](CC(=O)O)NC(=O)[C@H](CC(C)C)NC(=O)[C@H](Cc4ccc(O)cc4)NC(=O)[C@H](CCCCN)NC(=O)[C@H](CO)NC(=O)[C@H](Cc4ccc(O)cc4)NC(=O)[C@H](CC(=O)O)NC(=O)[C@H](CO)NC(=O)[C@@H](NC(=O)[C@H](Cc4ccccc4)NC(=O)[C@@H](NC(=O)CNC(=O)[C@H](CCC(N)=O)NC(=O)C(C)(C)NC(=O)[C@@H](N)Cc4c[nH]cn4)[C@@H](C)O)[C@@H](C)O)C(=O)N[C@@H](CCC(N)=O)C(=O)N[C@@H](C)C(=O)N[C@@H](C)C(=O)N3)[C@@H](C)CC)C(=O)N[C@@H](Cc3c[nH]c4ccccc34)C(=O)N[C@@H](CC(C)C)C(=O)N[C@@H](CC(C)C)C(=O)N[C@@H](CCC(N)=O)C(=O)N[C@H](C(=O)O)[C@@H](C)O)[C@H](O)[C@H](O)[C@H]2O)[C@@H](O)[C@H](O)[C@H]1O [EU-A1578],,0.008 nM,0.355 nM
CCCCCCCCCCCCO[C@@H]1O[C@H](CO[C@H]2O[C@H](C(=O)NCCCC[C@H](NC(=O)[C@@H](NC(=O)[C@H](Cc3ccccc3)NC(=O)[C@H](CCC(=O)O)NC(=O)[C@@H]3CCCCNC(=O)CC[C@H](NC(=O)[C@H](CC(=O)O)NC(=O)[C@H](CC(C)C)NC(=O)[C@H](Cc4ccc(O)cc4)NC(=O)[C@H](CCCCN)NC(=O)[C@H](CO)NC(=O)[C@H](Cc4ccc(O)cc4)NC(=O)[C@H](CC(=O)O)NC(=O)[C@H](CO)NC(=O)[C@@H](NC(=O)[C@H](Cc4ccccc4)NC(=O)[C@@H](NC(=O)CNC(=O)[C@H](CCC(N)=O)NC(=O)C(C)(C)NC(=O)[C@@H](N)Cc4c[nH]cn4)[C@@H](C)O)[C@@H](C)O)C(=O)N[C@@H](CCC(=O)O)C(=O)N[C@@H](C)C(=O)N[C@@H](C)C(=O)N3)[C@@H](C)CC)C(=O)N[C@@H](Cc3c[nH]c4ccccc34)C(=O)N[C@@H](CC(C)C)C(=O)N[C@@H](CC(C)C)C(=O)N[C@@H](CCC(N)=O)C(=O)N[C@H](C(=O)O)[C@@H](C)O)[C@H](O)[C@H](O)[C@H]2O)[C@@H](O)[C@H](O)[C@H]1O [EU-A1581] (H-H[Aib]QGTFTSDYSKYLDEEAAKEFIK(Melibiouronoyl(1β-O-dodecyl))WLLQT-OH; lactam 16-20; N-terminus assumed),,0.086 nM,1.03 nM

# Now from value to compound:
"EC50 (human glucagon receptor; read-out: EC50 cAMP Glucagon R, human glucagon receptor in CHO cells (DiscoveRx))",EC50 (human GLP-1 receptor),EC50 (human glucagon receptor),SMILES
> 1000 nM,,,CCCCCCCCCCCCCCCCCCO[C@@H]1O[C@H](C(=O)NCCCC[C@H](NC(=O)[C@H](Cc2ccc(-c3ccccc3)cc2)NC(=O)[C@H](CC(=O)O)NC(=O)[C@H](CO)NC(=O)[C@@H](NC(=O)[C@](C)(Cc2ccccc2)NC(=O)[C@@H](NC(=O)CNC(=O)[C@H](CCC(N)=O)NC(=O)C(C)(C)NC(=O)[C@@H](N)Cc2c[nH]cn2)[C@@H](C)O)[C@@H](C)O)C(N)=O)[C@@H](O)[C@H](O)[C@H]1O [EU-A757] (H-H[Aib]QGT[αMeF]TSD[Bip]K(βDGlcA(1-OC18H37))-NH2; N-terminus assumed)
,0.008 nM,0.24 nM,CCCCCCCCCCCCCCCCO[C@@H]1O[C@H](CO[C@H]2O[C@H](C(=O)NCCCC[C@H](NC(=O)[C@@H](NC(=O)[C@H](Cc3ccccc3)NC(=O)[C@H](CCC(=O)O)NC(=O)[C@@H]3CCCCNC(=O)CC[C@H](NC(=O)[C@H](CC(=O)O)NC(=O)[C@H](CC(C)C)NC(=O)[C@H](Cc4ccc(O)cc4)NC(=O)[C@H](CCCCN)NC(=O)[C@H](CO)NC(=O)[C@H](Cc4ccc(O)cc4)NC(=O)[C@H](CC(=O)O)NC(=O)[C@H](CO)NC(=O)[C@@H](NC(=O)[C@H](Cc4ccccc4)NC(=O)[C@@H](NC(=O)CNC(=O)[C@H](CCC(N)=O)NC(=O)C(C)(C)NC(=O)[C@@H](N)Cc4c[nH]cn4)[C@@H](C)O)[C@@H](C)O)C(=O)N[C@@H](CCC(N)=O)C(=O)N[C@@H](C)C(=O)N[C@@H](C)C(=O)N3)[C@@H](C)CC)C(=O)N[C@@H](Cc3c[nH]c4ccccc34)C(=O)N[C@@H](CC(C)C)C(=O)N[C@@H](CC(C)C)C(=O)N[C@@H](CCC(N)=O)C(=O)N[C@H](C(N)=O)[C@@H](C)O)[C@H](O)[C@H](O)[C@H]2O)[C@@H](O)[C@H](O)[C@H]1O [EU-A1025]
,0.021 nM,0.463 nM,CCCCCCCCCCCCCCCCO[C@H]1O[C@H](CO[C@H]2O[C@H](C(=O)NCCCC[C@H](NC(=O)[C@@H](NC(=O)[C@H](Cc3ccccc3)NC(=O)[C@H](CCC(=O)O)NC(=O)[C@@H]3CCCCNC(=O)CC[C@H](NC(=O)[C@H](CC(=O)O)NC(=O)[C@H](CC(C)C)NC(=O)[C@H](Cc4ccc(O)cc4)NC(=O)[C@H](CCCCN)NC(=O)[C@H](CO)NC(=O)[C@H](Cc4ccc(O)cc4)NC(=O)[C@H](CC(=O)O)NC(=O)[C@H](CO)NC(=O)[C@@H](NC(=O)[C@H](Cc4ccccc4)NC(=O)[C@@H](NC(=O)CNC(=O)[C@H](CCC(N)=O)NC(=O)C(C)(C)NC(=O)[C@@H](N)Cc4c[nH]cn4)[C@@H](C)O)[C@@H](C)O)C(=O)N[C@@H](CCC(N)=O)C(=O)N[C@@H](C)C(=O)N[C@@H](C)C(=O)N3)[C@@H](C)CC)C(=O)N[C@@H](Cc3c[nH]c4ccccc34)C(=O)N[C@@H](CC(C)C)C(=O)N[C@@H](CC(C)C)C(=O)N[C@@H](CCC(N)=O)C(=O)N[C@H](C(N)=O)[C@@H](C)O)[C@H](O)[C@H](O)[C@H]2O)[C@@H](O)[C@H](O)[C@H]1O [EU-A1173]
